Structures are written as SMILES.

In test [1] the target is BCL-2 binding to biotinylated BAK peptide (Homo sapiens, UniProt P10415). Put plainly: SPR (Biacore) solution inhibition assay, BCL-2 binding to BAK peptide surface. To be noted: read-out: BCL2_SPR IC50 BAK. The text has this:
(§1) The present method includes utility of a Surface plasmon resonance (SPR)-based biosensor (Biacore™, GE Healthcare, Uppsala, Sweden) to characterize BCL-2 inhibitors.
(§2) Biacore™ utilizes the phenomenon of surface plasmon resonance (SPR) to detect and measure binding interactions. In a typical Biacore experiment, one of the interacting molecules (ligand) is immobilized on a flexible dextran matrix while the interacting partner (analyte) is allowed to flow across that surface. A binding interaction results in an increase in mass on the sensor surface and a corresponding direct change in the refractive index of the medium in the vicinity of the sensor surface. Changes in refractive index or signal are recorded in resonance units (R.U.) Signal changes due to association and dissociation of complexes are monitored in a non-invasive manner, continuously and in real-time, the results of which are reported in the form of a sensorgram.
(§3) The SPR assay is configured to examine solution inhibition of BCL-2 binding to peptide derivatized sensor surfaces to generate IC50 values as a measure of inhibitor potency.
(§4) Biacore™ A100 (GE Healthcare, Uppsala, Sweden) was used to conduct all experiments reported herein. Sensor surface preparation and all interaction analyses experiments were performed at 25° C. Reagents were purchased from GE Healthcare. Running buffer containing 10 mM Hepes, pH7.4, 150 mM sodium chloride, 1.25 mM Dithiothreitol, 3% Dimethyl sulfoxide and 0.05% polysorbate 20 were utilized throughout all analyses.
(§5) Biotinylated BAK, BAD and NOXA peptides were diluted to 10 nM in running buffer and captured onto a sensor surface pre-derivatized with streptavidin (sensor chip SA) to peptide surface densities in the range 50-100 R.U. Peptide captured surfaces were blocked with 500 μM PEO2-Biotin.
(§6) Interaction analyses were performed by first equilibrating each sample within a 6 point three fold compound dilution series in the range 16 μM to […] with 56 nM BCL-2 for one hour during instrument start-up procedures. Protein compound mixtures were then injected over each peptide surface in parallel for 60 seconds at a flow-rate of 30 μL/min. 56 nM BCL-2 control samples were also prepared and run at regular intervals during the assay. Surface regeneration was performed at the end of each analysis cycle by two 30 second injections of 10 mM Glycine, pH 2.5, 1M Sodium Chloride, 0.05% polysorbate 20. Samples and control compound samples were run in duplicate and controls are also run at regular intervals during the assay to monitor surface and assay performance.
(§7) Data analyses are carried out using Biacore™ A100 evaluation software v1.1 to validate assay quality. Binding level report points were used relative to BCL-2 control samples to calculate % inhibition values for each compound protein mixture. […] The range of data shown in table 1 represents the high and low IC50 values obtained from multiple experiments.
In general terms: SPR reads the build-up and loss of mass on a sensor chip optically.

The target of test [2] is BCL-2 binding to biotinylated BAD peptide (Homo sapiens, UniProt P10415). Put plainly: SPR (Biacore) solution inhibition assay, BCL-2 binding to BAD peptide surface. To be noted: read-out: BCL2_SPR IC50 BAD.
BCL-2 binding to biotinylated BAD peptide, sequence (P10415 whole entry): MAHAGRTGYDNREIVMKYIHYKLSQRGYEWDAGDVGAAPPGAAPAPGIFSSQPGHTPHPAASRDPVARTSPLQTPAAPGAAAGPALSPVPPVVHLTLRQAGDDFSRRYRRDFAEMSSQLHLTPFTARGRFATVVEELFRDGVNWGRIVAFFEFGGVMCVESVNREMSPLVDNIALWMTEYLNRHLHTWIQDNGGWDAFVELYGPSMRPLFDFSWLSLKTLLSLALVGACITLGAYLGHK
From the text: as §1, §2, §3, §4, §5, §6, §7

BCL-2 binding to biotinylated BAK peptide, sequence (P10415 whole entry): as above

`CCCCN(CCCC)C(=O)c1cc(C)n(-c2ccc(NC(=O)Nc3ccc(F)c(F)c3)cc2C(=O)N2Cc3ccccc3C[C@H]2CO)n1` [Example 35]: the IC50 (as a rule, the concentration that inhibits the measured activity by half) lay within 3.01 to 3.07 µM in test [1] and 3.2 to 3.93 µM in test [2].

Turning to `CCCCN(CCCC)C(=O)c1cc(C)n(-c2ccc(NC(=O)NCc3ccccc3Cl)cc2C(=O)N2Cc3ccccc3C[C@H]2CO)n1` [Example 7], the IC50 was in the range of 0.0863 to 0.0942 µM in test [1] and 0.103 to 0.107 µM in test [2].

Regarding `CCCCN(CCCC)C(=O)c1cc(C)n(-c2ccc(NC(=O)NC(C)C)cc2C(=O)N2Cc3ccccc3C[C@H]2CO)n1` [Example 14], the results for the 50% inhibitory concentration (IC50) in test [1] and in test [2] were 0.343 to 0.356 µM and 0.494 to 0.509 µM, respectively.

As to `CCCCN(CCCC)C(=O)c1cc(C)n(-c2ccc(NC(=O)Nc3ccc(OC)c(OC)c3)cc2C(=O)N2Cc3ccccc3C[C@H]2CO)n1` [Example 38], the IC50 in test [1] lay in the range of 0.384 to 0.417 µM; in test [2], 0.524 to 0.614 µM.

In the case of `CCCCN(CCCC)C(=O)c1cc(C)n(-c2ccc(NC(=O)Nc3cccc(Cc4ccccc4)c3)cc2C(=O)N2Cc3ccccc3C[C@H]2CO)n1` [Example 31], the figures for the IC50 in test [1] and in test [2] were 1.54 to 1.58 µM and 2.32 to 2.5 µM, respectively.

Take `CCCCN(CCCC)C(=O)c1cc(C)n(-c2ccc(NC(=O)N[C@@H]3C[C@H]3c3ccccc3)cc2C(=O)N2Cc3ccccc3C[C@H]2CO)n1` [Example 13]: the half-inhibitory concentration (IC50) in test [1] was 8.77 to 9.19 µM; in test [2] it was above 16 µM.

Turning to `CCCCN(CCCC)C(=O)c1cc(C)n(-c2ccc(NC(=O)Nc3cc(Cl)cc(Cl)c3)cc2C(=O)N2Cc3ccccc3C[C@H]2CO)n1` [Example 36], the IC50 in test [1] and in test [2] was above 16 µM each time.

With `CCCCN(CCCC)C(=O)c1cc(C)n(-c2ccc(NC(=O)Nc3ccc(C#N)cc3)cc2C(=O)N2Cc3ccccc3C[C@H]2CO)n1` [Example 22], the IC50 in test [1] fell in the range of 1.57 to 1.73 µM; in test [2], 1.84 to 2.17 µM.

As to `CCCCN(CCCC)C(=O)c1cc(C)n(-c2ccc(NC(=O)Nc3cc(F)cc(F)c3)cc2C(=O)N2Cc3ccccc3C[C@H]2CO)n1` [Example 37], the IC50 fell in the range of 3.76 to 3.78 µM in test [1] and 4.06 to 4.28 µM in test [2].

On to `CCCCN(CCCC)C(=O)c1cc(C)n(-c2ccc(NC(=O)Nc3c(C)cccc3C)cc2C(=O)N2Cc3ccccc3C[C@H]2CO)n1` [Example 30], for which the IC50 in test [1] was in the range of 0.192 to 0.205 µM; in test [2] it was 0.21 to 0.238 µM.

As for `CCCCN(CCCC)C(=O)c1cc(C)n(-c2ccc(NC(=O)Nc3ccc(F)c(C(F)(F)F)c3)cc2C(=O)N2Cc3ccccc3C[C@H]2CO)n1` [Example 11], the IC50 lay in the range of 2.71 to 2.77 µM in test [1] and 3.02 to 3.22 µM in test [2].

On to `CCCCN(CCCC)C(=O)c1cc(C)n(-c2ccc(NC(=O)N[C@H](C)c3ccc(OC)cc3)cc2C(=O)N2Cc3ccccc3C[C@H]2CO)n1` [Example 19], for which the values for the IC50 in test [1] and in test [2] were 0.736 to 0.857 µM and 0.725 to 0.805 µM, respectively.

Regarding `CCCCN(CCCC)C(=O)c1cc(C)n(-c2ccc(NC(=O)NCc3cccc(C)c3)cc2C(=O)N2Cc3ccccc3C[C@H]2CO)n1` [Example 17], the concentration for half-maximal inhibition (IC50) in test [1] was 0.0851 to 0.0859 µM; in test [2], 0.089 to 0.108 µM.

With `CCCCN(CCCC)C(=O)c1cc(C)n(-c2ccc(NC(=O)N[C@@H](C)c3ccccc3)cc2C(=O)N2Cc3ccccc3C[C@H]2CO)n1` [Example 4], the IC50 in test [1] fell in the range of 0.0731 to 0.0757 µM; in test [2] it was 0.0863 to 0.0913 µM.

`CCCCN(CCCC)C(=O)c1cc(C)n(-c2ccc(NC(=O)Nc3c(Cl)cccc3Cl)cc2C(=O)N2Cc3ccccc3C[C@H]2CO)n1` [Example 40]: the figures for the concentration for half-maximal inhibition (IC50) in test [1] and in test [2] were 0.197 to 0.224 µM and 0.204 to 0.303 µM, respectively.

As to `CCCCN(CCCC)C(=O)c1cc(C)n(-c2ccc(NC(=O)Nc3ccccc3OC(F)(F)F)cc2C(=O)N2Cc3ccccc3C[C@H]2CO)n1` [Example 41], the figures for the concentration for half-maximal inhibition (IC50) in test [1] and in test [2] were 0.888 to 0.97 µM and 0.923 to 0.969 µM, respectively.

For the compound `CCCCN(CCCC)C(=O)c1cc(C)n(-c2ccc(NC(=O)NCc3ccccc3)cc2C(=O)N2Cc3ccccc3C[C@H]2CO)n1` [Example 1, (S)-1-(4-(3-benzylureido)-2-(3-(hydroxymethyl)-1,2,3,4-tetrahydroisoquinoline-2-carbonyl)phenyl)-N,N-dibutyl-5-methyl-1H-pyrazole-3-carboxamide], the IC50 in test [1] fell in the range of 0.0452 to 0.0543 µM; in test [2] it was 0.052 to 0.0655 µM.

Take `CCCCN(CCCC)C(=O)c1cc(C)n(-c2ccc(NC(=O)Nc3ccc(Cl)cc3C)cc2C(=O)N2Cc3ccccc3C[C@H]2CO)n1` [Example 27]: the IC50 in test [1] was 0.846 to 0.861 µM; in test [2], 0.9 to 0.962 µM.

For `CCCCN(CCCC)C(=O)c1cc(C)n(-c2ccc(NC(=O)Nc3cccc(Cl)c3C)cc2C(=O)N2Cc3ccccc3C[C@H]2CO)n1` [Example 33], the results for the half-inhibitory concentration (IC50) in test [1] and in test [2] were 0.337 to 0.378 µM and 0.44 to 0.448 µM, respectively.

For `CCCCN(CCCC)C(=O)c1cc(C)n(-c2ccc(NC(=O)NC3CCCC3)cc2C(=O)N2Cc3ccccc3C[C@H]2CO)n1` [Example 32], the 50% inhibitory concentration (IC50) in test [1] fell in the range of 0.279 to 0.284 µM; in test [2] it was 0.445 to 0.463 µM.

On to `CCCCN(CCCC)C(=O)c1cc(C)n(-c2ccc(NC(=O)Nc3ccccc3Cc3ccccc3)cc2C(=O)N2Cc3ccccc3C[C@H]2CO)n1` [Example 39], for which the half-maximal inhibitory concentration (IC50) in test [1] was in the range of 0.667 to 0.676 µM; in test [2], 0.766 to 0.845 µM.

As for `CCCCN(CCCC)C(=O)c1cc(C)n(-c2ccc(NC(=O)NCC)cc2C(=O)N2Cc3ccccc3C[C@H]2CO)n1` [Example 2], the half-maximal inhibitory concentration (IC50) in test [1] was in the range of 0.404 to 0.43 µM; in test [2] it was 0.582 to 0.618 µM.

The values above are taken from patent US20140357666A1, “COMPOUNDS FOR INHIBITING THE INTERACTION OF BCL2 WITH BINDING PARTNERS” (NOVARTIS AG, priority 2011, published 2014).
